# Results as given in patent US8519096B2, “Citrullinated peptides for diagnosing and prognosing rheumatoid arthritis” (Nestec S.A., priority 2009, dated 2013).
# Non-standard residues stand in square brackets, D forms with d. *: point of attachment. Biotin = O=C1N[C@H]2[C@H](CS[C@H]2CCCCC(=O)*)N1; Cit = NC(=O)NCCC[C@H](N)C(=O)O
# Test system: IgG ACPAs
# Assay: ACPA ELISA with anti-human IgG secondary antibody
# Type: binding
# Settings: Example 7, FIGS. 20-27
# Method: The synthetic citrullnated peptides set forth in Example 6, which were designed from synovial proteins, were synthesized and evaluated for their ability to diagnose and/or prognose RA. […] The peptides were then tested for IgG ACPA dose-response in samples of synovial fluid taken from both healthy patients and patients with RA.
row,Substance,IgG ACPA positive response (strong/moderate)
1,"FBNT-10: synthetic citrullinated peptide derived from fibronectin, Table 8 (Biotin-GGFR[Cit]TTPPTTF[Cit]RTTPPTTAR-NH2; SMILES C[C@H](NC(=O)[C@@H](NC(=O)[C@@H](NC(=O)[C@@H]1CCCN1C(=O)[C@@H]1CCCN1C(=O)[C@@H](NC(=O)[C@@H](NC(=O)[C@H](CCCNC(=N)N)NC(=O)[C@H](CCCNC(N)=O)NC(=O)[C@H](Cc1ccccc1)NC(=O)[C@@H](NC(=O)[C@@H](NC(=O)[C@@H]1CCCN1C(=O)[C@@H]1CCCN1C(=O)[C@@H](NC(=O)[C@@H](NC(=O)[C@H](CCCNC(N)=O)NC(=O)[C@H](CCCNC(=N)N)NC(=O)[C@H](Cc1ccccc1)NC(=O)CNC(=O)CNC(=O)CCCC[C@@H]1SC[C@@H]2NC(=O)N[C@@H]21)[C@@H](C)O)[C@@H](C)O)[C@@H](C)O)[C@@H](C)O)[C@@H](C)O)[C@@H](C)O)[C@@H](C)O)[C@@H](C)O)C(=O)N[C@@H](CCCNC(=N)N)C(N)=O)",moderate
2,"FIB-A6: 25-mer citrullinated peptide: fibrinogen alpha chain amino acids 451-465 linked to 509-517, Cys461 to Ser (Biotin-GSGSTTTTR[Cit]SSSKTVFRH[Cit]HPDEA-NH2; SMILES CC(C)[C@H](NC(=O)[C@@H](NC(=O)[C@H](CCCCN)NC(=O)[C@H](CO)NC(=O)[C@H](CO)NC(=O)[C@H](CO)NC(=O)[C@H](CCCNC(N)=O)NC(=O)[C@H](CCCNC(=N)N)NC(=O)[C@@H](NC(=O)[C@@H](NC(=O)[C@@H](NC(=O)[C@@H](NC(=O)[C@H](CO)NC(=O)CNC(=O)[C@H](CO)NC(=O)CNC(=O)CCCC[C@@H]1SC[C@@H]2NC(=O)N[C@@H]21)[C@@H](C)O)[C@@H](C)O)[C@@H](C)O)[C@@H](C)O)[C@@H](C)O)C(=O)N[C@@H](Cc1ccccc1)C(=O)N[C@@H](CCCNC(=N)N)C(=O)N[C@@H](Cc1c[nH]cn1)C(=O)N[C@@H](CCCNC(N)=O)C(=O)N[C@@H](Cc1c[nH]cn1)C(=O)N1CCC[C@H]1C(=O)N[C@@H](CC(=O)O)C(=O)N[C@@H](CCC(=O)O)C(=O)N[C@@H](C)C(N)=O)",moderate
3,"FIB-G1: synthetic citrullinated peptide derived from fibrin (gamma-chain), Table 8 (Biotin-GYVAT[Cit]DNSSILDE[Cit]FGSRILTHDSSI[Cit]YR-NH2; SMILES CC[C@H](C)[C@H](NC(=O)[C@H](CO)NC(=O)[C@H](CO)NC(=O)[C@H](CC(=O)O)NC(=O)[C@H](Cc1c[nH]cn1)NC(=O)[C@@H](NC(=O)[C@H](CC(C)C)NC(=O)[C@@H](NC(=O)[C@H](CCCNC(=N)N)NC(=O)[C@H](CO)NC(=O)CNC(=O)[C@H](Cc1ccccc1)NC(=O)[C@H](CCCNC(N)=O)NC(=O)[C@H](CCC(=O)O)NC(=O)[C@H](CC(=O)O)NC(=O)[C@H](CC(C)C)NC(=O)[C@@H](NC(=O)[C@H](CO)NC(=O)[C@H](CO)NC(=O)[C@H](CC(N)=O)NC(=O)[C@H](CC(=O)O)NC(=O)[C@H](CCCNC(N)=O)NC(=O)[C@@H](NC(=O)[C@H](C)NC(=O)[C@@H](NC(=O)[C@H](Cc1ccc(O)cc1)NC(=O)CNC(=O)CCCC[C@@H]1SC[C@@H]2NC(=O)N[C@@H]21)C(C)C)[C@@H](C)O)[C@@H](C)CC)[C@@H](C)CC)[C@@H](C)O)C(=O)N[C@@H](CCCNC(N)=O)C(=O)N[C@@H](Cc1ccc(O)cc1)C(=O)N[C@@H](CCCNC(=N)N)C(N)=O)",strong
4,"H2A-1: synthetic citrullinated peptide derived from histone (H2A), Table 8 (Biotin-GLELAGNAA[Cit]DNKKTRIIP[Cit]HLQG-NH2; SMILES CC[C@H](C)[C@H](NC(=O)[C@H](CCCNC(=N)N)NC(=O)[C@@H](NC(=O)[C@H](CCCCN)NC(=O)[C@H](CCCCN)NC(=O)[C@H](CC(N)=O)NC(=O)[C@H](CC(=O)O)NC(=O)[C@H](CCCNC(N)=O)NC(=O)[C@H](C)NC(=O)[C@H](C)NC(=O)[C@H](CC(N)=O)NC(=O)CNC(=O)[C@H](C)NC(=O)[C@H](CC(C)C)NC(=O)[C@H](CCC(=O)O)NC(=O)[C@H](CC(C)C)NC(=O)CNC(=O)CCCC[C@@H]1SC[C@@H]2NC(=O)N[C@@H]21)[C@@H](C)O)C(=O)N[C@H](C(=O)N1CCC[C@H]1C(=O)N[C@@H](CCCNC(N)=O)C(=O)N[C@@H](Cc1c[nH]cn1)C(=O)N[C@@H](CC(C)C)C(=O)N[C@@H](CCC(N)=O)C(=O)NCC(N)=O)[C@@H](C)CC)",moderate
5,"H2B-2: synthetic citrullinated peptide derived from histone (H2B), Table 8 (Biotin-SFVNDIFE[Cit]IAGEAS[Cit]LAHYNKRSTITS[Cit]EG-NH2; SMILES CC[C@H](C)[C@H](NC(=O)[C@H](CCCNC(N)=O)NC(=O)[C@H](CCC(=O)O)NC(=O)[C@H](Cc1ccccc1)NC(=O)[C@@H](NC(=O)[C@H](CC(=O)O)NC(=O)[C@H](CC(N)=O)NC(=O)[C@@H](NC(=O)[C@H](Cc1ccccc1)NC(=O)[C@H](CO)NC(=O)CCCC[C@@H]1SC[C@@H]2NC(=O)N[C@@H]21)C(C)C)[C@@H](C)CC)C(=O)N[C@@H](C)C(=O)NCC(=O)N[C@@H](CCC(=O)O)C(=O)N[C@@H](C)C(=O)N[C@@H](CO)C(=O)N[C@@H](CCCNC(N)=O)C(=O)N[C@@H](CC(C)C)C(=O)N[C@@H](C)C(=O)N[C@@H](Cc1c[nH]cn1)C(=O)N[C@@H](Cc1ccc(O)cc1)C(=O)N[C@@H](CC(N)=O)C(=O)N[C@@H](CCCCN)C(=O)N[C@@H](CCCNC(=N)N)C(=O)N[C@@H](CO)C(=O)N[C@H](C(=O)N[C@H](C(=O)N[C@H](C(=O)N[C@@H](CO)C(=O)N[C@@H](CCCNC(N)=O)C(=O)N[C@@H](CCC(=O)O)C(=O)NCC(N)=O)[C@@H](C)O)[C@@H](C)CC)[C@@H](C)O)",moderate
6,"H2B-3: synthetic citrullinated peptide derived from histone (H2B), Table 8 (Biotin-SRLAHYNK[Cit]STITSREIQTAV[Cit]LG-NH2; SMILES CC[C@H](C)[C@H](NC(=O)[C@H](CCC(=O)O)NC(=O)[C@H](CCCNC(=N)N)NC(=O)[C@H](CO)NC(=O)[C@@H](NC(=O)[C@@H](NC(=O)[C@@H](NC(=O)[C@H](CO)NC(=O)[C@H](CCCNC(N)=O)NC(=O)[C@H](CCCCN)NC(=O)[C@H](CC(N)=O)NC(=O)[C@H](Cc1ccc(O)cc1)NC(=O)[C@H](Cc1c[nH]cn1)NC(=O)[C@H](C)NC(=O)[C@H](CC(C)C)NC(=O)[C@H](CCCNC(=N)N)NC(=O)[C@H](CO)NC(=O)CCCC[C@@H]1SC[C@@H]2NC(=O)N[C@@H]21)[C@@H](C)O)[C@@H](C)CC)[C@@H](C)O)C(=O)N[C@@H](CCC(N)=O)C(=O)N[C@H](C(=O)N[C@@H](C)C(=O)N[C@H](C(=O)N[C@@H](CCCNC(N)=O)C(=O)N[C@@H](CC(C)C)C(=O)NCC(N)=O)C(C)C)[C@@H](C)O)",strong
